Assay results published in paper PMC7557147 (Biochemical Journal, 2020).

Tests used:
[1] = target: T1, TgAPN2 (Toxoplasma gondii, UniProt S8G5K8, N1303Q/N840Q); format: biochemical, Toxoplasma gondii ME49; details: relative to hArg = 100%; 10 µM ACC substrate, 0.5 nM enzyme
[2] = target: T1, TgAPN2; assay: TgAPN2 aminopeptidase activity under chelating conditions; format: biochemical, Toxoplasma gondii ME49; details: increasing EDTA concentration (0–200 mM); 20 nM enzyme, 15 µM substrate
[3] = target: T1, TgAPN2; assay: Michaelis-Menten kinetics of TgAPN2 with fluorogenic Mec substrates; format: biochemical, Toxoplasma gondii ME49; details: substrate of TgAPN2, 20 nM enzyme, 37°C, pH 8.0
[4] = system: recombinant TgAPN2; details: ref [14]; cited from earlier work

With `N=C(N)NCCC[C@H](N)C(=O)O` [Arg] the “normalised relative activity of TgAPN2 toward P1 substrate” value (shortened to “normalised relative activity”) [1] was 81%.
In the case of `O=C(O)CN(CCN(CC(=O)O)CC(=O)O)CC(=O)O` [EDTA], the “effect on TgAPN2 enzyme velocity” value [2] is reported as “reduction in enzyme velocity”.
In the case of `Cc1cc(=O)oc2cc(NC(=O)[C@@H](N)CCCNC(=N)N)ccc12.Cl` [L-Arg-Mec, L-arginine-7-amido-4-methylcoumarin hydrochloride], the Km [3] is reported as 148 ± 5.1 µM, the kcat [3] is reported as 1017 ± 15.2 s⁻¹ and the kcat ([3]; listed as Arg-Mec) is reported as 1017 s⁻¹.
Compound `Cc1cc(=O)oc2cc(NC(=O)[C@@H](N)CC(C)C)ccc12.Cl` [L-Leu-Mec, L-leucine-7-amido-4-methylcoumarin hydrochloride] has a Km [3] of 31.8 ± 3 µM, a kcat [3] of 1.32 ± 0.03 s⁻¹ and a kcat ([3]; listed as Leu-Mec) of 1.32 s⁻¹.
With `CC(C)C[C@H](N)C(=O)O` [Leu] the “normalised relative activity” value [1] was 26%.
With `NCCCC[C@H](N)C(=O)O` [Lys] the “normalised relative activity” value [1] was 52%.
In the case of `CC(C)C[C@@H](N)[C@H](O)C(=O)N[C@H](C(=O)N[C@H](C(=O)N[C@@H](CC(=O)O)C(=O)O)C(C)C)C(C)C` [amastatin], the “inhibition of recombinant TgAPN2 (in words)” value [4] is listed as “inhibited”.
For `CC(C)C[C@H](NC(=O)[C@@H](O)[C@H](N)Cc1ccccc1)C(=O)O` [bestatin], the “inhibition of recombinant TgAPN2 (in words)” value [4] is given as “inhibited”.
For `NC(N)=NCCCC[C@H](N)C(=O)O` [hArg, Homo-arginine], the “normalised relative activity” value [1] was 100%.
With `N[C@@H](CCc1ccccc1)C(=O)O` [hPhe] the “normalised relative activity” value [1] was 18%.
With `N[C@@H](CCc1ccc(O)cc1)C(=O)O` [hTyr] the “normalised relative activity” value [1] was 54%.
